Reference: PMC10831786 (Virus Research, 2024)
Values joined by “and” are separate entries in the source; they are usually repeats but may differ in a detail not shown here. Identical values can stand only once. Counter-ions that a name gives are not always drawn. Like-named read-outs stand apart in the source and are kept apart here.

Legend:
BEC-hACE2 cells = assay: MTS assay, growth inhibition and toxicity in non-infected BEC-hACE2 cells; assay type: cell-based, human; details: for MTS, TGI (beginning of the plateau): BEC-hACE2, 24 h
Description: (§1) Detailed methods are provided in Supplementary Information.
(§2) Vero E6 and BEC-hACE2 cells were grown to 70-80% density in their maintenance media and exposed to various concentrations of ipecac alkaloids (0.0125 – 200 µM) under standard culture conditions for 48-72 h and 24 h, respectively. Controls with varying amounts of DMSO and no DMSO were included also. Vero E6 cells were incubated with drugs in 2% FBS-EMEM, while BEC-HACE2 cells were grown and treated in complete PCS-300-03 medium with supplements. Similar treatments were also conducted using fully confluent non-growing BEC-hACE2 cells. At the end of the exposure period, MTS reagent (Promega G3580) was added at 1/5th of the medium volume and color was allowed to develop by incubation of the plates for an hour in a cell culture incubator. To stop reactions, SDS was added to a final concentration of 2% and optical density of samples was measured at 450 or 490 nm, depending on the model of spectrophotometer (PharmaciaBiotech, NJ, USA; UV spectrophotometer, model Ultrospec2000) or plate reader (Molecular Devices, CA, USA; model Filter Max F5 Multi-mode microplate reader) available at the time of experiment.

[1] = tested on: protein synthesis in BEC-hACE2 cells; assay: Puromycin pulse labeling, protein synthesis in cultured BEC-hACE2 cells; assay type: cell-based, human; details: for inhibition at 1 µM: BEC-hACE2, 1 μM
[2] = molecular target: T1, l-type calcium current ICaL (Cavia porcellus, UniProt O35505); assay: Patch clamp recording of ICaL in guinea pig ventricular myocytes; assay type: cell-based; details: for Kd: guinea pig ventricular myocytes, Langmuir isotherm, 5-60 μM, read-out: KD for inhibition of ICaL; for IC50: GP cardiomyocytes, read-out: IC50, calcium channel (ICaL) blocking activity
T1 construct: from tissue; host or cells: freshly dissociated guinea pig ventricular myocytes
T1 sequence (O35505 whole entry): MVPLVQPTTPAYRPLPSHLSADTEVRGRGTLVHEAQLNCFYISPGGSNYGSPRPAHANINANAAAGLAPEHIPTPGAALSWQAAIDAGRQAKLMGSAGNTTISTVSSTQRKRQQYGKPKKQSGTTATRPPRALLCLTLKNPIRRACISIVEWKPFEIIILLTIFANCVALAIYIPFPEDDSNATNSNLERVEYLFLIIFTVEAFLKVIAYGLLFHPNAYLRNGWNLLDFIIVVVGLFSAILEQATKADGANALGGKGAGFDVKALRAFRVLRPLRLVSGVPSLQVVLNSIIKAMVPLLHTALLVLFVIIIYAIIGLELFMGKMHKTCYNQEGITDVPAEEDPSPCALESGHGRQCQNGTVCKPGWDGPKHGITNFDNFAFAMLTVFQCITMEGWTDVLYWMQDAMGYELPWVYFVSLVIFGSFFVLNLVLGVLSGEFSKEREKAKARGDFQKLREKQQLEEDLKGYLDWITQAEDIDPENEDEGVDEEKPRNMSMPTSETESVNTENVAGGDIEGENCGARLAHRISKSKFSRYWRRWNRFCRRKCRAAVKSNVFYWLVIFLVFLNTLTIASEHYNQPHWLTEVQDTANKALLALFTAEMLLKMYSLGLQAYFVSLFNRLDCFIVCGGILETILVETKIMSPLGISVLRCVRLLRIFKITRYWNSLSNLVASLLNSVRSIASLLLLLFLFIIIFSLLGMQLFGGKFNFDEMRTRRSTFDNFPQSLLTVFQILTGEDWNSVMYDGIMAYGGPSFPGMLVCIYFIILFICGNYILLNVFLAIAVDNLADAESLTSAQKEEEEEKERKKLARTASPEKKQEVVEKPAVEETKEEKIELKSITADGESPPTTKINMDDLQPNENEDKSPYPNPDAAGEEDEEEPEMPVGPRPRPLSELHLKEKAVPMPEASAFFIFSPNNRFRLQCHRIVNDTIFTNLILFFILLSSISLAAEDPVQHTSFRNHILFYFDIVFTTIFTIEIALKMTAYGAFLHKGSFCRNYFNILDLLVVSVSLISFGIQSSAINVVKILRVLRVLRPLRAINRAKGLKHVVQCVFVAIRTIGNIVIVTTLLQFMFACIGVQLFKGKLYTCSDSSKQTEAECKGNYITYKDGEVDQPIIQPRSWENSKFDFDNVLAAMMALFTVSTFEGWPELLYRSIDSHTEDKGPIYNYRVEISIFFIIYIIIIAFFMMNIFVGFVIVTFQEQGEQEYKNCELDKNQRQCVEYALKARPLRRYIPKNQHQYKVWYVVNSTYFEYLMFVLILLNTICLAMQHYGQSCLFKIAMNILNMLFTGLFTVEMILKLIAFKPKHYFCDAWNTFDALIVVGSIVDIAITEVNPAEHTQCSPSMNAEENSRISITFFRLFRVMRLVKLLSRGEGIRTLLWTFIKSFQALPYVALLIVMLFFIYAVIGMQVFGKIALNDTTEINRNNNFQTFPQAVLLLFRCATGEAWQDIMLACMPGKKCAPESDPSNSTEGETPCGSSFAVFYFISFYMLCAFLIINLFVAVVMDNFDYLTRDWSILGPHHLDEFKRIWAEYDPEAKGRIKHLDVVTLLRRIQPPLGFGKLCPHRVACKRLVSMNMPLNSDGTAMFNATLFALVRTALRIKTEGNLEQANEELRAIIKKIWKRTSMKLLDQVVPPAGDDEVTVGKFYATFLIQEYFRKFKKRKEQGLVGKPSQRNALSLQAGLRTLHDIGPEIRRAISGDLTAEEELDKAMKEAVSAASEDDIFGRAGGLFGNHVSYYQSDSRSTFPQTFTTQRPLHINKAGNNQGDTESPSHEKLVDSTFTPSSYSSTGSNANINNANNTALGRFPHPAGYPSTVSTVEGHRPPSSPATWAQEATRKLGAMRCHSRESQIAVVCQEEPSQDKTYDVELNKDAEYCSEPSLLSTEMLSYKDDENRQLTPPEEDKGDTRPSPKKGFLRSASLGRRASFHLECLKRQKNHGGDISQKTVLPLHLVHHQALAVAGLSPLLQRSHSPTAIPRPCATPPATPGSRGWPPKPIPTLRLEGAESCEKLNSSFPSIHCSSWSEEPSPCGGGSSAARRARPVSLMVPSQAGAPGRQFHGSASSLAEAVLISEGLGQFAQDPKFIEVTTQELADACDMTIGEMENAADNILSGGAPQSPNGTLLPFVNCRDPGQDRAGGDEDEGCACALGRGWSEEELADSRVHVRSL

[3] = tested on: protein synthesis in Vero E6 cells; assay: Puromycin pulse labeling, protein synthesis in cultured Vero E6 cells; assay type: cell-based, African green monkey; details: for IC50: Chlorocebus sabaeus
Description: Vero E6 cells were seeded at 30,000 cells per cm^2 in 6-well plates. […] Control experiments were conducted in medium alone and medium containing cycloheximide or DMSO. After 12 min, cells were washed with 37° PBS and then allowed to recover in drug-free 2 % FBS-EMEM for 30 min. Cell pellets, collected by trypsinization and centrifugation for 5 min at 5 000 rpm at 4 °C, were re-suspended in ice-cold PBS and centrifugation was repeated. Collected cells were stored at −80 °C.
Antibodies used were anti-puromycin monoclonal (TFS; MABE34), goat anti-mouse-HRP (TFS, Invitrogen; G21040), rabbit anti-β-actin (Cell Signaling, 4967S, lot 9) and HRP-conjugated goat-anti-rabbit (Cell Signaling, 7074S, lot 27). Protein extract and immunoblotting methods were done by standard methods reported here as Supplementary Information.
Vero E6 cells were seeded at 30,000 cells per cm^2 in 6-well plates. […] Puromycin labelling protocols have been well established by other laboratories and a general review of the methods has been published^79. Control experiments were conducted in medium alone and medium containing cycloheximide or DMSO. Following incubation with puromycin for 12 min, the medium was quickly removed and cells were washed with warm PBS and then allowed to recover in drug-free 2% FBS-EMEM for 30 min. Cell pellets, collected by trypsinization and centrifugation for 5 min at 5 000 rpm at 4°C, were re-suspended in ice-cold PBS and the centrifugation was repeated. Collected cells were stored at -80°C until subjected to the protein preparation as noted below.
Defrosted cell pellets were re-suspended in 120 µl of RIPA (radio-immunoprecipitation) buffer (Sigma; R0278) containing 7 µl of protease inhibitors (Sigma; P8340). Samples were incubated on ice for 40 min with occasional gentle mixing. Cell debris was removed by a 20 min centrifugation at 16,000 g at 4°C and supernatants were stored at -80°C. Protein was measured by the Pierce^TM bicinchoninic acid (BCA) assay (Thermo Fisher Scientific [TFS], MA, USA; 23250), using bovine serum albumin as a standard, according to protocols recommended by the manufacturer.
For immunoblotting, 10 µg of protein was combined with Laemmli buffer containing 10% β-mercaptoethanol, heated at 95°C for 5 min and loaded on 4-20% Mini-PROTEAN® TGX™ precast protein gels. Samples were resolved by electrophoresis in Tris-Gly-SDS buffer and transferred to nitrocellulose membranes. Transfer was conducted in Tris-Gly buffer containing 20% methanol at 4-6 V/cm^2 for one hour. Membranes were blocked in 10 mM sodium phosphate buffer containing 150 mM NaCl (pH 7.8), 5% milk and 0.1% TWEEN20 (PBST) at room temperature for at least one hour, and then incubated overnight with primary anti-puromycin antibodies (TFS; MABE343 mouse monoclonal antibodies clone 12D10; 1:12,500) at 4°C. Membranes were washed for five minutes three times in PBST and incubated with secondary goat anti-mouse horseradish peroxidase (HRP) -conjugated antibodies (TFS, Invitrogen; G21040; 1:25,000) for 90 min. After three more rounds of washing as above, membranes were incubated with an HRP substrate (TFS; 34077) for one minute and chemoluminescence was visualized by exposing membranes to film for 1, 2, 5, 10 and 30 min.
For β-actin staining, the same membranes used for puromycin immunostaining were washed four times, 5 min each, in 20 mM Tris-buffered saline containing 500 mM sodium chloride (pH 7.5) and 0.1% TWEEN20 (TBST) and stripped by two rounds of 20 and 10 min washes at 50°C in glycine buffer (pH 2.2) containing 0.1 % SDS (W/V) and 1% TWEEN20. Membranes were then washed at room temperature with PBS (3x10 min) and PBST (2x5min). Blocking, primary (1:4,000) and secondary (1:5,000) antibody staining was conducted as above. Primary rabbit anti-β-actin antibodies were obtained from Cell Signaling (4967S, lot 9) and secondary HRP-conjugated goat-anti-rabbit antibodies were from the same company (7074S, lot 27). […]

Vero E6 cells = assay: MTS assay, growth inhibition and toxicity in non-infected Vero E6 cells; assay type: cell-based, African green monkey; details: for Concentrations at which drug is cytotoxic: Vero E6, MTS
Description: as §1, §2

[4] = Vero C1008, read-out: IC50, host protein synthesis
[5] = Vero C1008, Vero E6 cells, 1 h exposure, puromycin labeling, read-out: 50 % inhibitory activities, protein synthesis
[6] = Homo sapiens, read-out: Protein synthesis inhibition,%

Structure (SMILES)	MTS, nature of the effect (BEC-hACE2 cells; BEC-hACE2, at 100 μM)	Kd [2]	Protein synthesis,% ([3]; Vero E6, 0.1 μM)	Concentration above which inhibition of puromycilation is not sustained ([3]; Vero E6 cells)	MTS, TGI (beginning of the plateau) (BEC-hACE2 cells)	inhibition at 1 µM ([1]; Homo sapiens)	IC50 [2]	IC50 [3, 4]	IC50 [3, 5]	Protein synthesis, puromycilation signal ([3]; Vero E6, > 10 μM)	Concentrations at which drug is cytotoxic (Vero E6 cells)	also measured
CC[C@H]1CN2CCc3cc(OC)c(OC)cc3[C@@H]2C[C@@H]1C[C@@H]1NCCc2cc(OC)c(OC)cc21.Cl.Cl [Isoemetine, 2H-Benzoaquinolizine, 3-ethyl-1,3,4,6,7,11b-hexahydro-9,10-dimethoxy-2-(1S)-1,2,3,4-tetrahydro-6,7-dimethoxy-1-isoquinolinylmethyl-, dihydrochloride, (2S,3R,11bS)-]	cytotoxic	42 µM	0%	> 1 µM	–	–	–	–	–	–	–	Concentrations at which cells are affected (MTS) (BEC-hACE2 cells; sub-confluent BEC-hACE2, 24 h): above 50 μM; CC50 (BEC-hACE2 cells; sub-confluent BEC-hACE2, 24 h, read-out: MTS, CC50 (50 % effect)): 100 µM; Protein synthesis inhibition,% ([1]; BEC-hACE2, 10 μM, 10 µM): 20%; Protein synthesis inhibition,% ([1]; BEC-hACE2, 10 μM, listed as ISOEMT, 10 µM): 18%; Protein synthesis inhibition,% ([1]; BEC-hACE2, 30 μM, 30 µM): 50%; Protein synthesis inhibition,% ([1]; BEC-hACE2, 30 μM, listed as ISOEMT, 30 µM): 47%; Protein synthesis, puromycilation signal ([3]; Vero E6, >1 μM): signal increase; CC50 (Vero E6 cells; MTS, 72 h, read-out: Fifty percent effect (CC50) in non-infected Vero E6): 114 ± 13.1 µM
CCC1=C(C[C@H]2NCCc3cc(OC)c(OC)cc32)C[C@H]2c3cc(OC)c(OC)cc3CCN2C1 [DHE4, 4H-Benzo[a]quinolizine, 3-ethyl-1,6,7,11b-tetrahydro-9,10-dimethoxy-2-[[(1R)-1,2,3,4-tetrahydro-6,7-dimethoxy-1-isoquinolinyl]methyl]-, (11bS)-]	cytostatic	54 µM	20%	> 10 µM	0.125 µM	97%	40 to 60 µM	0.15 to 0.17 µM	~0.21 µM	signal increase	higher than 10 μM	MTS, decrease (BEC-hACE2 cells; BEC-hACE2, at 100 μM): 40%; MTS, CC50 (50 % effect) (BEC-hACE2 cells; sub-confluent BEC-hACE2, 24 h): Effect not reached; Protein synthesis,% ([3]; Vero E6, 0.01 μM): 15%
CC[C@H]1CN2CCc3cc(OC)c(OC)cc3[C@@H]2C[C@@H]1C[C@H]1NCCc2cc(OC)c(OC)cc21 [Emetine, 2H-Benzoaquinolizine, 3-ethyl-1,3,4,6,7,11b-hexahydro-9,10-dimethoxy-2-(1R)-1,2,3,4-tetrahydro-6,7-dimethoxy-1-isoquinolinylmethyl-, dihydrochloride, (2S,3R,11bS)-, reference compound]	cytostatic	57 µM	50%	> 10 µM	0.125 µM	97%	~57 µM and 40 to 60 µM	0.15 to 0.17 µM	~0.11 µM	signal increase	higher than 10 μM	IC50 ([1]; Homo sapiens, read-out: IC50, protein synthesis): ~0.2 µM; inhibition at 0.05 µM [1, 6]: 7%; inhibition at 0.1 µM [1, 6]: 30%; inhibition at 0.3 µM [1, 6]: 80%; inhibition at 1000 µM [1, 6]: 97%; inhibition at 0.5 µM ([1]; Homo sapiens, 0.5 μM, read-out: Inhibition of translation activity in host cells): ≥ 90%; inhibition at 10 µM ([1]; Homo sapiens, BEC-hACE2, 10 μM): 100%; IC50 ([1]; Homo sapiens, BEC-hACE2, read-out: IC50, protein synthesis inhibition): ~0.12 µM; Impact on ICaL ([2]; 0.5 μM): 1%; inhibition at 5 µM ([2]; 5 μM): ~10%; Estimated reduction in ICaL ([2]; GP ventricular myocytes, assuming 25 µM): over thirty-three percent; Protein synthesis,% ([3]; Vero E6, 0.01 μM, listed as EMT): 20%; Protein synthesis,% ([3]; Vero E6, 0.03 μM): 50%; Protein synthesis,% ([3]; Vero E6, 1 μM): terminating all translation activity; Protein synthesis,% ([3]; Vero E6, 1 μM, listed as EMT): 100%
